# Results published in patent US20080167189A1, “Polymer Compositions and Their Use in the Production of Active or Effective Ingredient Compositions” (Basf Aktiengesellschaft, priority 2005, published 2008).
# What was measured:
# [1] = Solubility of the active compounds in distilled water
# physchem = details: water
structure (smiles),measurement,setting,value
COC(=O)N(OC)c1ccccc1COc1ccn(-c2ccc(Cl)cc2)n1 [Pyraclostrobin],solubility,[1],2.4 µg/mL
O=C(Nc1ccccc1-c1ccc(Cl)cc1)c1cccnc1Cl [Boscalid],solubility,physchem,4.6 µg/mL
